Data on 40 compounds can be found in patent US9896418B2, “Aryl ethers and uses thereof” (Peloton Therapeutics, Inc., priority 2013, dated 2018).

The subject of the experiment is HIF-2α HIS TAG-PASB Domain. Description: HIF-2α Scintillation Proximity Assay (SPA). The class given is binding. As for the experimental part:
The percent inhibition was determined and IC50 values were calculated using the Dotmatics system based on the following equation: % inhibition=[(high control−sample)/(high control−low control)]×100.

The compound `O=S(=O)(c1ccc(Oc2cc(F)cc(Cl)c2)c(CO)c1)C(F)(F)F` [Compound 122, (2-(3-Chloro-5-fluorophenoxy)-5-((trifluoromethyl)sulfonyl)phenyl)methanol] gave an IC50 of 1700 nM.
In turn, `O=Cc1cc(S(=O)(=O)C(F)(F)F)ccc1Oc1cc(F)cc(Cl)c1` [Compound 123, 2-(3-Chloro-5-fluorophenoxy)-5-((trifluoromethyl)sulfonyl)benzaldehyde] returned an IC50 of 32 nM.
`NC(=O)c1cc(S(=O)(=O)C(F)(F)F)ccc1Oc1cc(F)cc(Cl)c1` [Compound 125, 2-(3-Chloro-5-fluorophenoxy)-5-((trifluoromethyl)sulfonyl)benzamide] displayed an IC50 of 8000 nM.
With `O=S(=O)(c1ccc(Oc2cc(F)cc(Cl)c2)c(CCO)c1)C(F)(F)F` [Compound 127, 2-[2-(3-Chloro-5-fluoro-phenoxy)-5-(trifluoromethylsulfonyl)phenyl]ethanol], it took 2800 nM to reach half-maximal inhibition (IC50).
`O=S(=O)(c1cc(C(F)(F)F)ccc1Oc1cc(F)cc(Cl)c1)C(F)(F)F` [Compound 129, 1-(3-Chloro-5-fluorophenoxy)-4-(trifluoromethyl)-2-((trifluoromethyl)sulfonyl)benzene]: the IC50 came to 2200 nM.
As to `C=CS(=O)(=O)c1ccc(Oc2cc(F)cc(Cl)c2)c(Br)c1` [Compound 130, 2-Bromo-1-(3-chloro-5-fluorophenoxy)-4-(vinylsulfonyl)benzene], it took 5500 nM to reach half-maximal inhibition (IC50).
On to `O=S(=O)(c1ccc(Oc2cc(F)cc(Cl)c2)c(Br)c1)C(F)F` [Compound 131, 2-Bromo-1-(3-chloro-5-fluorophenoxy)-4-((difluoromethyl)sulfonyl)benzene], for which the half-maximal inhibitory concentration (IC50) is 310 nM.
In the case of `N#Cc1cc(F)cc(Oc2ccc(S(=O)(=O)C(F)F)cc2Br)c1` [Compound 132, 3-(2-Bromo-4-((difluoromethyl)sulfonyl)phenoxy)-5-fluorobenzonitrile] it was 310 nM.
`N#Cc1cc(S(=O)(=O)C(F)F)ccc1Oc1cc(F)cc(Cl)c1` [Compound 133, 2-(3-Chloro-5-fluorophenoxy)-5-((difluoromethyl)sulfonyl)benzonitrile]: the IC50 stood at 500 nM.
In turn, `N#Cc1cc(F)cc(Oc2ccc(S(=O)(=O)C(F)F)cc2C#N)c1` [Compound 134, 2-(3-Cyano-5-fluorophenoxy)-5-((difluoromethyl)sulfonyl)benzonitrile] returned an IC50 of 450 nM.
As to `Cc1cc(S(=O)(=O)C(F)F)ccc1Oc1cc(F)cc(Cl)c1` [Compound 135, 1-(3-Chloro-5-fluoro-phenoxy)-4-(difluoromethylsulfonyl)-2-methyl-benzene], inhibition was half-maximal at 370 nM (IC50).
The value for `Cc1cc(S(=O)(=O)C(F)F)ccc1Oc1cc(F)cc(C#N)c1` [Compound 136, 3-[4-(Difluoromethylsulfonyl)-2-methyl-phenoxy]-5-fluoro-benzonitrile] was 230 nM; that for `O=S(=O)(CF)c1ccc(Oc2cc(F)cc(Cl)c2)c(Br)c1` [Compound 137, 2-Bromo-1-(3-chloro-5-fluorophenoxy)-4-((fluoromethyl)sulfonyl)benzene] was 560 nM; that for `CS(=O)(=O)c1ccc(Oc2cc(F)cc(Cl)c2)c(Br)c1` [Compound 138, 2-Bromo-1-(3-chloro-5-fluorophenoxy)-4-(methylsulfonyl)benzene] was 4000 nM.
In the case of `Cc1c(Oc2cc(F)cc(Cl)c2)ccc(S(=O)(=O)C(F)(F)F)c1Br` [Compound 140, 3-Bromo-1-(3-chloro-5-fluoro-phenoxy)-2-methyl-4-(trifluoromethylsulfonyl)benzene] it was 29 nM; in that of `Cc1c(Oc2cc(F)cc(C#N)c2)ccc(S(=O)(=O)C(F)(F)F)c1Br` [Compound 141, 3-[3-Bromo-2-methyl-4-(trifluoromethylsulfonyl)phenoxy]-5-fluoro-benzonitrile], 65 nM; in that of `Cc1c(Oc2cc(F)cc(C#N)c2)ccc(S(=O)(=O)C(F)(F)F)c1C#CCO` [Compound 142, 3-Fluoro-5-[3-(3-hydroxyprop-1-ynyl)-2-methyl-4-(trifluoromethylsulfonyl)phenoxy]benzonitrile], 13000 nM.
The compound `Cc1c(Oc2cc(F)cc(Cl)c2)ccc(S(=O)(=O)C(F)(F)F)c1Cl` [Compound 143, 3-Chloro-1-(3-chloro-5-fluoro-phenoxy)-2-methyl-4-(trifluoromethylsulfonyl)benzene] returned an IC50 of 20 nM.
On to `Cc1c(Oc2cc(F)cc(C#N)c2)ccc(S(=O)(=O)C(F)(F)F)c1Cl` [Compound 144, 3-Fluoro-5-[3-chloro-2-methyl-4-(trifluoromethylsulfonyl)phenoxy]benzonitrile], for which the IC50 amounted to 44 nM.
The value for `Cc1c(Oc2cc(F)cc(C#N)c2)ccc(S(=O)(=O)C(F)(F)F)c1C=O` [Compound 145, 3-Fluoro-5-[3-formyl-2-methyl-4-(trifluoromethylsulfonyl)phenoxy]benzonitrile] was 74 nM; that for `COC(=O)/C=C/c1c(S(=O)(=O)C(F)(F)F)ccc(Oc2cc(F)cc(C#N)c2)c1C` [Compound 147, Methyl (E)-3-[3-(3-cyano-5-fluoro-phenoxy)-2-methyl-6-(trifluoromethylsulfonyl)phenyl]prop-2-enoate] was 110 nM; that for `CCOC(=O)/C=C/c1c(S(=O)(=O)C(F)(F)F)ccc(Oc2cc(F)cc(C#N)c2)c1C` [Compound 148, Ethyl (E)-3-(3-(3-cyano-5-fluorophenoxy)-2-methyl-6-((trifluoromethyl)sulfonyl)phenyl)acrylate] was 220 nM.
`Cc1c(Oc2cc(F)cc(C#N)c2)ccc(S(=O)(=O)C(F)(F)F)c1/C=C/C(=O)NCc1ccccc1` [Compound 149, (E)-N-Benzyl-3-(3-(3-cyano-5-fluorophenoxy)-2-methyl-6-((trifluoromethyl)sulfonyl)phenyl)acrylamide] had an IC50 of 5700 nM.
`Cc1c(Oc2cc(F)cc(C#N)c2)ccc(S(=O)(=O)C(F)(F)F)c1/C=C/c1nnco1` [Compound 150, 3-Fluoro-5-[2-methyl-3-[(E)-2-(1,3,4-oxadiazol-2-yl)vinyl]-4-(trifluoromethylsulfonyl)phenoxy]benzonitrile] gave an IC50 of 1300 nM.
In turn, `Cc1nnc(/C=C/c2c(S(=O)(=O)C(F)(F)F)ccc(Oc3cc(F)cc(C#N)c3)c2C)o1` [Compound 151, 3-Fluoro-5-[2-methyl-3-[(E)-2-(5-methyl-1,3,4-oxadiazol-2-yl)vinyl]-4-(trifluoromethylsulfonyl)phenoxy]benzonitrile] returned an IC50 of 1100 nM.
The compound `CS(=O)(=O)c1ccc(Oc2cc(F)cc(C#N)c2)c(C#N)c1Cl` [Compound 152, 2-chloro-6-(3-cyano-5-fluorophenoxy)-3-(methylsulfonyl)benzonitrile] came in with an IC50 of 320 nM.
The compound `N#Cc1c(Oc2cc(F)cc(Cl)c2)ccc(S(=O)(=O)C(F)(F)F)c1F` [Compound 153, 6-(3-chloro-5-fluorophenoxy)-2-fluoro-3-((trifluoromethyl)sulfonyl)benzonitrile] had an IC50 of 230 nM.
In the case of `N#Cc1c(Oc2cc(F)cc(Cl)c2)ccc(S(=O)(=O)C(F)(F)F)c1NCCO` [Compound 154, 6-(3-Chloro-5-fluoro-phenoxy)-2-(2-hydroxyethylamino)-3-(trifluoromethylsulfonyl)benzonitrile] it was 11700 nM.
Take `O=S(=O)(c1ccc(Oc2ccc(Cl)c(Cl)c2)c(Br)c1)C(F)(F)F` [Compound 169, 2-Bromo-1-(3,4-dichlorophenoxy)-4-((trifluoromethyl)sulfonyl)benzene]: the IC50 was 1900 nM.
The compound `O=S(=O)(c1ccc(Oc2cc(Cl)ccc2F)c(Br)c1)C(F)(F)F` [Compound 170, 2-Bromo-1-(5-chloro-2-fluorophenoxy)-4-((trifluoromethyl)sulfonyl)benzene] gave an IC50 of 1800 nM.
The value for `Cc1c(Cl)cccc1Oc1ccc(S(=O)(=O)C(F)(F)F)cc1Br` [Compound 171, 1-(2-Bromo-4-((trifluoromethyl)sulfonyl)phenoxy)-3-chloro-2-methylbenzene] was 1200 nM; that for `O=S(=O)(c1ccc(Oc2cc(Cl)cc(Cl)c2)c(Br)c1)C(F)(F)F` [Compound 172, 2-Bromo-1-(3,5-dichlorophenoxy)-4-((trifluoromethyl)sulfonyl)benzene] was 310 nM.
`Cc1cc(C)cc(Oc2ccc(S(=O)(=O)C(F)(F)F)cc2Br)c1` [Compound 173, 2-Bromo-1-(3,5-dimethylphenoxy)-4-((trifluoromethyl)sulfonyl)benzene] gave an IC50 of 2000 nM.
The compound `Cc1ccc(Cl)cc1Oc1ccc(S(=O)(=O)C(F)(F)F)cc1Br` [Compound 174, 2-Bromo-1-(5-chloro-2-methylphenoxy)-4-((trifluoromethyl)sulfonyl)benzene] gave an IC50 of 1200 nM.
Consider `O=S(=O)(c1ccc(Oc2cc(F)cc(CO)c2)c(Br)c1)C(F)(F)F` [Compound 177, (3-(2-Bromo-4-((trifluoromethyl)sulfonyl)phenoxy)-5-fluorophenyl)methanol], for which inhibition was half-maximal at 18000 nM (IC50).
The value for `C/C=C/c1c(S(=O)(=O)C(F)F)ccc(Oc2cc(F)cc(C#N)c2)c1C#N` [Compound 178, (E)-6-(3-Cyano-5-fluorophenoxy)-3-((difluoromethyl)sulfonyl)-2-(prop-1-en-1-yl)benzonitrile] was 920 nM.
Compound `O=S(=O)(c1ccc(Oc2cc(F)cc(Cl)c2)c(Br)c1Cl)C(F)(F)F` [Compound 179, 2-Bromo-3-chloro-1-(3-chloro-5-fluorophenoxy)-4-((trifluoromethyl)sulfonyl)benzene] registered an IC50 of 23 nM.
On to `CS(=N)(=O)c1ccc(Oc2cc(F)cc(Cl)c2)c(C#N)c1Cl` (stereo not shown) [Compound 180, 2-Chloro-6-(3-chloro-5-fluorophenoxy)-3-(S-methylsulfonimidoyl)benzonitrile], for which the IC50 came out at 9400 nM.
With `O=C1c2c(S(=O)(=O)C(F)F)ccc(Oc3cncc(Cl)c3)c2CC1(F)F` [Compound 182, 4-((5-Chloropyridin-3-yl)oxy)-7-((difluoromethyl)sulfonyl)-2,2-difluoro-2,3-dihydro-1H-inden-1-one], inhibition was half-maximal at 380 nM (IC50).
In the case of `O=S(=O)(c1ccc(Oc2cncc(Cl)c2)c2c1[C@H](O)CC2)C(F)(F)F` [Compound 184, (R)-4-((5-Chloropyridin-3-yl)oxy)-7-((trifluoromethyl)sulfonyl)-2,3-dihydro-1H-inden-1-ol], the IC50 turned out to be 720 nM.

Usually IC50 stands for the concentration that gives 50% inhibition. Low readings indicate greater potency in that assay, high ones weaker potency in that assay.
